For 1 compound, pain control results are on record in US8268821B2, “Methods and compositions” (priority 2003, dated 2012).

This assay relates to cancer-related neuropathic pain. Put plainly: Open label dose escalation study of flupirtine, case studies JE and RM. The conditions noted are these: RM; ketamine for six days prior to the flupirtine trial.

Regarding `CNC1(c2ccccc2Cl)CCCCC1=O` (stereo not shown) [ketamine], the pain control result is recorded as “failed to control pain”.
